# Measured values reported in patent publication US9040523B2, “Antifungal 5,6-dihydro-4H-pyrrolo[1,2-α][1,4]-benzodiazepines and 6H-pyrrolo[1,2-α][1,4]benzodiazepines substituted with benzene derivatives” (JANSSEN PHARMACEUTICA NV, priority 2010, dated 2015).
# What was measured:
# [1] = test system: Sporothrix schenkii B62482; assay: Antifungal activity in vitro (resazurin susceptibility screen), Inf. A; type: cell-based; conditions: Sporothrix, B62482, Sporothrix schenkii B62482; 27 °C, 4 days, resa time 24 hours; highest in-test concentration 64 μM; read-out: Inf. A pIC50 (converted)
# Outline: (§1)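 Each well is seeded with 10^3 colony-forming units against spotted compound dilutions; untreated fungus and plain RPMI-MOPS define the 100% and 0% growth limits.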
# Microsporum canis B68128 = assay: Antifungal activity in vitro (resazurin susceptibility screen), Inf. B; type: cell-based; conditions: Microsporum canis, B68128, Microsporum canis B68128; 27 °C, 9 days, resa time 24 hours; read-out: Inf. B pIC50 (converted)
# Outline: (§2)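 Each well was inoculated with 10^3 cfu of fungus onto dried, pre-spotted compound serial dilutions in RPMI-MOPS medium, with fungal growth read by resazurin. Growth was referenced to drug-free culture (100%) and medium-only (0%) controls on each plate.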
# [2] = test system: Trichophyton rubrum B68183; assay: Antifungal activity in vitro (resazurin susceptibility screen), Inf. C; type: cell-based; conditions: Trichophyton rubrum B68183; 27 °C, 7 days, resa time 24 hours; read-out: Inf. C pIC50 (converted)
# Outline: as §1
# [3] = test system: Candida parapsilosis B66126; assay: Antifungal activity in vitro (resazurin susceptibility screen), Inf. D; type: cell-based; conditions: Lodderomyces parapsilosis; Candida parapsilosis B66126; 37 °C, 24 hours, resa time 4 hours; read-out: Inf. D pIC50 (converted)
# Outline: as §2
# [4] = test system: Aspergillus fumigatus B42928; assay: Antifungal activity in vitro (resazurin susceptibility screen), Inf. E; type: cell-based; conditions: Aspergillus fumigatus B42928; 27 °C, 48 hours, resa time 17 hours; read-out: Inf. E pIC50 (converted)
# Outline: as §1
# [5] = test system: Cryptococcus neoformans B66663; assay: Antifungal activity in vitro (resazurin susceptibility screen), Inf. F; type: cell-based; conditions: Cryptococcus neoformans, B66663, Cryptococcus neoformans B66663; 37 °C, 24 hours, resa time 4 hours; read-out: Inf. F pIC50 (converted)
# Outline: as §1
# [6] = test system: Trichophyton mentagrophytes B70554; assay: Antifungal activity in vitro (resazurin susceptibility screen), Inf. G; type: cell-based; conditions: Trichophyton mentagrophytes, B70554, Trichophyton mentagrophytes B70554; 27 °C, 7 days, resa time 24 hours; read-out: Inf. G pIC50 (converted)
# Outline: as §2
# [7] = test system: Scedosporium apiospermum IHEM3817; assay: Antifungal activity in vitro (resazurin susceptibility screen), Inf. H; type: cell-based; conditions: 37 °C, 48 hours, resa time 17 hours, read-out: Inf. H pIC50 (converted)
# Procedure: (§3) The standard susceptibility screen was performed in 96-well plates (U-bottom, Greiner Bio-One). […] These serial dilutions (10 n1) were then spotted onto test-plates that could be stored in the dark at 4° C. for a maximum period of 2 weeks. […] The different fungal species/isolates (Table 3a) were cryopreserved and 1/1000 diluted in medium just prior to use. A standard inoculum of 200 μl containing 10^3 colony-forming unit (cfu) was then added to each well. A positive control (100% growth=fungal culture without antifungal) and a negative control (0% growth ═RPMI-MOPS medium) were included on each plate. […] [table]
# [8] = test system: Scedosporium prolificans IHEM21157; assay: Antifungal activity in vitro (resazurin susceptibility screen), Inf. I; type: cell-based; conditions: Lomentospora prolificans, 37 °C, 48 hours, resa time 17 hours, read-out: Inf. I pIC50 (converted)
# Procedure: as §3
# Rhizopus oryzae IHEM5223 = assay: Antifungal activity in vitro (resazurin susceptibility screen), Inf. J; type: cell-based; conditions: Rhizopus arrhizus, 37 °C, 24 hours, resa time 6 hours, read-out: Inf. J pIC50 (converted)
# Procedure: as §3
# [9] = test system: Rhizomucor miehei IHEM13391; assay: Antifungal activity in vitro (resazurin susceptibility screen), Inf. K; type: cell-based; conditions: 37 °C, 48 hours, resa time 17 hours, read-out: Inf. K pIC50 (converted)
# Procedure: as §3
# [10] = test system: Mucor circinelloides IHEM21105; assay: Antifungal activity in vitro (resazurin susceptibility screen), Inf. L; type: cell-based; conditions: 27 °C, 48 hours, resa time 17 hours, read-out: Inf. L pIC50 (converted)
# Procedure: as §3
# [11] = Liver metabolic stability assay, hLM; type: in vitro ADME, human; conditions: human liver microsomes, 1 mg protein/ml, 5 μM test compound, 15 min, 37 °C
# [12] = Liver metabolic stability assay, gpLM; type: in vitro ADME, guinea pig; conditions: guinea pig microsomes, 1 mg protein/ml, 5 μM test compound, 15 min, 37 °C
# CYP3A4 = CYP3A4 (Homo sapiens, UniProt P08684); assay: Cytochrome P450 inhibition, Protocol A, cDNA expressed proteins, fluorogenic substrates; type: in vitro ADME; conditions: % inhibition at 10 μM, cDNA expressed protein; for hCYP3A4_BFC_Pct_Inh: substrate BFC; for hCYP3A4_BQ_Pct_Inh: substrate BQ; for hCYP3A4_DBF_Pct_Inh: substrate DBF
# Chain of CYP3A4 (P08684 whole entry): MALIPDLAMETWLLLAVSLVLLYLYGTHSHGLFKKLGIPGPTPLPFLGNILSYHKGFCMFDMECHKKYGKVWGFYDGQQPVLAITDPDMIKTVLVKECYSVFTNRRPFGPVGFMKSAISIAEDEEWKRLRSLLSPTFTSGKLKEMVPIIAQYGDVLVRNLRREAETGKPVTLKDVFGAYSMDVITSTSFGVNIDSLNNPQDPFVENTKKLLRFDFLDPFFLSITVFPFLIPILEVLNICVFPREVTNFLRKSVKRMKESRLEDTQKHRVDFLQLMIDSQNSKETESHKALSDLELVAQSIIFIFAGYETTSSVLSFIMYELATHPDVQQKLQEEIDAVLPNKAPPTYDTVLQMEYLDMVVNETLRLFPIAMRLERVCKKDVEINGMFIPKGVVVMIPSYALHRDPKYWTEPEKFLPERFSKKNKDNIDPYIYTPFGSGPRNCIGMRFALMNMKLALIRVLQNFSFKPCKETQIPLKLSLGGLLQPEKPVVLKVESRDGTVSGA
# Outline: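 cDNA-expressed enzymes with fluorogenic substrates (three separate ones for CYP3A4) in sodium/potassium buffer pH 7.4 plus NADPH-generating system. Compounds at 1 nM to 10 μM final, prewarmed 5 min at 37° C, reaction started with NADP+, stopped, then fluorescence measured.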
SMILES,IC50 [1],IC50 (Microsporum canis B68128),IC50 [2],IC50 [3],IC50 [4],IC50 [5],IC50 [6],IC50 [7],IC50 [8],IC50 (Rhizopus oryzae IHEM5223),IC50 [9],IC50 [10],%-compound metabolised_Met_hLM [11],%-compound metabolised Met_gpLM [12],hCYP3A4_BFC_Pct_Inh (CYP3A4),hCYP3A4_BQ_Pct_Inh (CYP3A4),hCYP3A4_DBF_Pct_Inh (CYP3A4)
"CC(=O)c1ccc(C2=NCc3cccc(Cl)c3-n3cccc32)cc1 [Compound 15, 1-[4-(10-chloro-6H-pyrrolo[1,2-a][1,4]benzodiazepin-4-yl)phenyl]-ethanone]",1.58 µM,631 nM,126 nM,> 63.1 µM,501 nM,2 µM,398 nM,10 µM,2000 nM,> 63.1 µM,7.94 µM,> 63.1 µM,17%,44%,1%,40%,16%
"CC(=O)c1cccc(C2=NCc3c(Cl)cccc3-n3cccc32)c1 [Compound 16, 1-[3-(7-chloro-6H-pyrrolo[1,2-a][1,4]benzodiazepin-4-yl)phenyl]-ethanone]",25.1 µM,316 nM,50.1 nM,> 63.1 µM,631 nM,> 63.1 µM,398 nM,> 63.1 µM,> 63100 nM,> 63.1 µM,> 63.1 µM,> 63.1 µM,87%,100%,29%,46%,64%
"CC(=O)c1cc(C2=NCc3c(Cl)cccc3-n3cccc32)ccc1F [Compound 19, 1-[5-(7-chloro-6H-pyrrolo[1,2-a][1,4]benzodiazepin-4-yl)-2-fluorophenyl]-ethanone]",> 63.1 µM,1580 nM,200 nM,> 63.1 µM,2000 nM,> 63.1 µM,794 nM,> 63.1 µM,1260 nM,> 63.1 µM,> 63.1 µM,> 63.1 µM,36%,80%,26%,49%,49%
"CC(=O)c1ccc(C2=NCc3c(F)cccc3-n3cccc32)cc1 [Compound 20, 1-[4-(7-fluoro-6H-pyrrolo[1,2-a][1,4]benzodiazepin-4-yl)phenyl]-ethanone]",> 63.1 µM,1260 nM,100 nM,> 63.1 µM,501 nM,> 63.1 µM,398 nM,> 63.1 µM,631 nM,> 63.1 µM,> 63.1 µM,> 63.1 µM,26%,88%,1%,25%,5%

# The remaining lines, values ahead:
IC50 [1],IC50 (Microsporum canis B68128),IC50 [2],IC50 [3],IC50 [4],IC50 [5],IC50 [6],IC50 [7],IC50 [8],IC50 (Rhizopus oryzae IHEM5223),IC50 [9],IC50 [10],%-compound metabolised_Met_hLM [11],%-compound metabolised Met_gpLM [12],hCYP3A4_BFC_Pct_Inh (CYP3A4),hCYP3A4_BQ_Pct_Inh (CYP3A4),hCYP3A4_DBF_Pct_Inh (CYP3A4),SMILES
3.98 µM,100 nM,50.1 nM,25.1 µM,251 nM,10 µM,316 nM,50.1 µM,1260 nM,> 63.1 µM,> 63.1 µM,> 63.1 µM,27%,73%,39%,63%,89%,"CC(=O)c1ccc(C2=NCc3c(Cl)cc(Cl)cc3-n3cccc32)cc1 [Compound 22, 1-[4-(7,9-dichloro-6H-pyrrolo[1,2-a][1,4]benzodiazepin-4-yl)phenyl]-ethanone]"
20 µM,2000 nM,126 nM,3.98 µM,794 nM,10 µM,631 nM,7.94 µM,2510 nM,> 63.1 µM,> 63.1 µM,> 63.1 µM,20%,53%,3%,39%,3%,"CC(=O)c1ccc(C2=NCc3c(F)cc(F)cc3-n3cccc32)cc1 [Compound 24, 1-[4-(7,9-difluoro-6H-pyrrolo[1,2-a][1,4]benzodiazepin-4-yl)phenyl]-ethanone]"
